The compounds below were run against NLuc::LmxCLK1 (Leishmania mexicana, UniProt E9AMP2) (assay: cell-based). Settings: 10 µM compound, tracer SV366, promastigotes.
Format: cell-based
Outline: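 NanoBRET tracer displacement in live cells expressing NLuc-tagged CLK1, test compounds at 10 µM fixed, 1% DMSO final. Acceptor/donor emission (610/460 nm) ratio gives mBRET, converted to blank-corrected probe occupancy (%); probe KD from single-site saturation binding fits.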
With `CNC(=O)c1ccccc1Nc1nc(Nc2ccc(N3CCOCC3)cc2OC)ncc1Cl` [TAE226 (NVP-TAE226)] the “Target occupancy Run 1” value was -26.7% and the “Target occupancy Run 2” value was -0.7%.
`CN1CCCN(C(=O)c2cccc(-c3ccc(/C=C4/C(=O)Nc5ccc(Cl)cc54)o3)c2)CC1.Cl` [CX-6258 HCl] was tested, and the “Target occupancy Run 1” value was -0.5% and the “Target occupancy Run 2” value was -26.8%.

Same assay, conditions: 10 µM compound, tracer SV366, promastigotes, mean of two experiments
For `CNC(=O)c1ccccc1Nc1nc(Nc2ccc(N3CCOCC3)cc2OC)ncc1Cl` [TAE226 (NVP-TAE226)], the “Target occupancy Average” value was -13.7%.
For `CN1CCCN(C(=O)c2cccc(-c3ccc(/C=C4/C(=O)Nc5ccc(Cl)cc54)o3)c2)CC1.Cl` [CX-6258 HCl], the “Target occupancy Average” value was -13.6%.

Same assay, conditions: read-out: Target occupancy Average
`O=C(O)c1ccc(-c2c[nH]c3ncc(-c4ccccc4)cc23)cc1C1CCCC1` [GSK650394] was tested, and the receptor occupancy at 10 µM was -8.8%.
`Cc1nc(Nc2ncc(C(=O)Nc3c(C)cccc3Cl)s2)cc(N2CCN(CCO)CC2)n1` [Dasatinib] was tested, and the receptor occupancy at 10 µM was -14.6%.
Compound `Cc1ccc2nc(NCCN)c3ncc(C)n3c2c1` [BMS-345541] has a receptor occupancy at 10 µM of -1.1%.
`C[C@H](NC(=O)/C(C#N)=C/c1cccc(Br)n1)c1ccccc1` [WP1066] showed a receptor occupancy at 10 µM of -7.5%.
Compound `CN(C[C@@H]1COCCO1)S(=O)(=O)Nc1ccc2ccc3ncc(-c4cnn(C)c4)cc3c(=O)c2c1` [MK-2461] has a receptor occupancy at 10 µM of -2.7%.
With `COc1ccc(Cl)c(Nc2nc3ccccc3nc2NS(=O)(=O)c2cccc(NC(=O)C(C)(C)N)c2)c1` [XL147] the receptor occupancy at 10 µM was -5%.

Same assay, conditions: read-out: Target occupancy Run 1
Work on `O=C(O)c1ccc(-c2c[nH]c3ncc(-c4ccccc4)cc23)cc1C1CCCC1` [GSK650394] yielded a receptor occupancy at 10 µM of -24.3%.
Compound `Cc1nc(Nc2ncc(C(=O)Nc3c(C)cccc3Cl)s2)cc(N2CCN(CCO)CC2)n1` [Dasatinib] has a receptor occupancy at 10 µM of 1.5%.
With `Cc1ccc2nc(NCCN)c3ncc(C)n3c2c1` [BMS-345541] the receptor occupancy at 10 µM was 7.2%.
For `C[C@H](NC(=O)/C(C#N)=C/c1cccc(Br)n1)c1ccccc1` [WP1066], the receptor occupancy at 10 µM was 3.4%.
Work on `CN(C[C@@H]1COCCO1)S(=O)(=O)Nc1ccc2ccc3ncc(-c4cnn(C)c4)cc3c(=O)c2c1` [MK-2461] yielded a receptor occupancy at 10 µM of -9.3%.
With `COc1ccc(Cl)c(Nc2nc3ccccc3nc2NS(=O)(=O)c2cccc(NC(=O)C(C)(C)N)c2)c1` [XL147] the receptor occupancy at 10 µM was -8.3%.

Same assay, conditions: read-out: Target occupancy Run 2
`O=C(O)c1ccc(-c2c[nH]c3ncc(-c4ccccc4)cc23)cc1C1CCCC1` [GSK650394] gave a receptor occupancy at 10 µM of 6.7%.
`Cc1nc(Nc2ncc(C(=O)Nc3c(C)cccc3Cl)s2)cc(N2CCN(CCO)CC2)n1` [Dasatinib] showed a receptor occupancy at 10 µM of -30.7%.
`Cc1ccc2nc(NCCN)c3ncc(C)n3c2c1` [BMS-345541] was tested, and the receptor occupancy at 10 µM was -9.4%.
`C[C@H](NC(=O)/C(C#N)=C/c1cccc(Br)n1)c1ccccc1` [WP1066] gave a receptor occupancy at 10 µM of -18.3%.
With `CN(C[C@@H]1COCCO1)S(=O)(=O)Nc1ccc2ccc3ncc(-c4cnn(C)c4)cc3c(=O)c2c1` [MK-2461] the receptor occupancy at 10 µM was 3.8%.
Work on `COc1ccc(Cl)c(Nc2nc3ccccc3nc2NS(=O)(=O)c2cccc(NC(=O)C(C)(C)N)c2)c1` [XL147] yielded a receptor occupancy at 10 µM of -1.7%.

What follows are compounds tested against T1, LmxCLK1 (Leishmania mexicana, UniProt E9AMP2) (assay: biochemical). Settings: DSF, 10 µM compound, 2 µM LmxCLK1, Run 1.
T1 sequence (E9AMP2 1-422): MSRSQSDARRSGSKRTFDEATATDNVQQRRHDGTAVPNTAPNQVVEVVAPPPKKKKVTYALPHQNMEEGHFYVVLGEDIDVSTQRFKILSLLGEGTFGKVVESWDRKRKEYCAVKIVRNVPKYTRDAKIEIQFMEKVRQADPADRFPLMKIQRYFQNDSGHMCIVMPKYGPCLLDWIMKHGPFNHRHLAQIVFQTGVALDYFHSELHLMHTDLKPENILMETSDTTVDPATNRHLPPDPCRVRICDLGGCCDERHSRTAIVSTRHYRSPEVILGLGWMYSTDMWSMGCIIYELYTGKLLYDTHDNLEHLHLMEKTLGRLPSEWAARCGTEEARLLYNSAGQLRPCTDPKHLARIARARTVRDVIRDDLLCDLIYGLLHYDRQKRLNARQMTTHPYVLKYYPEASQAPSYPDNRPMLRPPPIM
Format: binding
In the case of `CNC(=O)c1ccccc1Nc1nc(Nc2ccc(N3CCOCC3)cc2OC)ncc1Cl` [TAE226 (NVP-TAE226)], the “ΔTm Run 1” value is reported as 0.2 °C.
For `CN1CCCN(C(=O)c2cccc(-c3ccc(/C=C4/C(=O)Nc5ccc(Cl)cc54)o3)c2)CC1.Cl` [CX-6258 HCl], the “ΔTm Run 1” value was 0.1 °C.

Same assay, conditions: DSF, 10 µM compound, 2 µM LmxCLK1, Run 1; read-out: ΔTm Run 1
`O=C(O)c1ccc(-c2c[nH]c3ncc(-c4ccccc4)cc23)cc1C1CCCC1` [GSK650394] showed a ΔTm at 10 µM of -0.4 °C.
`Cc1nc(Nc2ncc(C(=O)Nc3c(C)cccc3Cl)s2)cc(N2CCN(CCO)CC2)n1` [Dasatinib] showed a ΔTm at 10 µM of -0.1 °C.
`Cc1ccc2nc(NCCN)c3ncc(C)n3c2c1` [BMS-345541] gave a ΔTm at 10 µM of -0.1 °C.
Compound `C[C@H](NC(=O)/C(C#N)=C/c1cccc(Br)n1)c1ccccc1` [WP1066] has a ΔTm at 10 µM of 0.1 °C.
`CN(C[C@@H]1COCCO1)S(=O)(=O)Nc1ccc2ccc3ncc(-c4cnn(C)c4)cc3c(=O)c2c1` [MK-2461] gave a ΔTm at 10 µM of 0 °C.
Compound `COc1ccc(Cl)c(Nc2nc3ccccc3nc2NS(=O)(=O)c2cccc(NC(=O)C(C)(C)N)c2)c1` [XL147] has a ΔTm at 10 µM of -0.1 °C.

Same assay, conditions: DSF, 10 µM compound, 2 µM LmxCLK1, Run 2
In the case of `CNC(=O)c1ccccc1Nc1nc(Nc2ccc(N3CCOCC3)cc2OC)ncc1Cl` [TAE226 (NVP-TAE226)], the “ΔTm Run 2” value is reported as -0.1 °C.
In the case of `CN1CCCN(C(=O)c2cccc(-c3ccc(/C=C4/C(=O)Nc5ccc(Cl)cc54)o3)c2)CC1.Cl` [CX-6258 HCl], the “ΔTm Run 2” value is reported as -0.4 °C.

Same assay, conditions: DSF, 10 µM compound, 2 µM LmxCLK1, Run 2; read-out: ΔTm Run 2
Compound `O=C(O)c1ccc(-c2c[nH]c3ncc(-c4ccccc4)cc23)cc1C1CCCC1` [GSK650394] has a ΔTm at 10 µM of -0.3 °C.
With `Cc1nc(Nc2ncc(C(=O)Nc3c(C)cccc3Cl)s2)cc(N2CCN(CCO)CC2)n1` [Dasatinib] the ΔTm at 10 µM was -0.2 °C.
`Cc1ccc2nc(NCCN)c3ncc(C)n3c2c1` [BMS-345541] was tested, and the ΔTm at 10 µM was -0.3 °C.
`C[C@H](NC(=O)/C(C#N)=C/c1cccc(Br)n1)c1ccccc1` [WP1066] gave a ΔTm at 10 µM of 0 °C.
With `CN(C[C@@H]1COCCO1)S(=O)(=O)Nc1ccc2ccc3ncc(-c4cnn(C)c4)cc3c(=O)c2c1` [MK-2461] the ΔTm at 10 µM was 0.2 °C.
`COc1ccc(Cl)c(Nc2nc3ccccc3nc2NS(=O)(=O)c2cccc(NC(=O)C(C)(C)N)c2)c1` [XL147] gave a ΔTm at 10 µM of 0.8 °C.

Same assay, conditions: DSF, 10 µM compound, 2 µM LmxCLK1, mean of two runs
`CNC(=O)c1ccccc1Nc1nc(Nc2ccc(N3CCOCC3)cc2OC)ncc1Cl` [TAE226 (NVP-TAE226)] was tested, and the “ΔTm Average” value was 0.0 °C.
`CN1CCCN(C(=O)c2cccc(-c3ccc(/C=C4/C(=O)Nc5ccc(Cl)cc54)o3)c2)CC1.Cl` [CX-6258 HCl] was tested, and the “ΔTm Average” value was -0.1 °C.

Same assay, conditions: DSF, 10 µM compound, 2 µM LmxCLK1, mean of two runs; read-out: ΔTm Average
Work on `O=C(O)c1ccc(-c2c[nH]c3ncc(-c4ccccc4)cc23)cc1C1CCCC1` [GSK650394] yielded a ΔTm at 10 µM of -0.3 °C.
For `Cc1nc(Nc2ncc(C(=O)Nc3c(C)cccc3Cl)s2)cc(N2CCN(CCO)CC2)n1` [Dasatinib], the ΔTm at 10 µM was -0.1 °C.
Work on `Cc1ccc2nc(NCCN)c3ncc(C)n3c2c1` [BMS-345541] yielded a ΔTm at 10 µM of -0.2 °C.
In the case of `C[C@H](NC(=O)/C(C#N)=C/c1cccc(Br)n1)c1ccccc1` [WP1066], the ΔTm at 10 µM is reported as 0 °C.
With `CN(C[C@@H]1COCCO1)S(=O)(=O)Nc1ccc2ccc3ncc(-c4cnn(C)c4)cc3c(=O)c2c1` [MK-2461] the ΔTm at 10 µM was 0.1 °C.
In the case of `COc1ccc(Cl)c(Nc2nc3ccccc3nc2NS(=O)(=O)c2cccc(NC(=O)C(C)(C)N)c2)c1` [XL147], the ΔTm at 10 µM is reported as 0.4 °C.
